The term EC50 denotes the concentration at which the effect is half-maximal. Usually IC50 stands for the midpoint of a concentration-inhibition curve.

Drawing on patent US11066414B2, “Cot modulators and methods of use thereof” (Gilead Sciences, Inc., priority 2015, dated 2021), this text covers EC50 and IC50 for 22 compounds.

One assay deals with TNFα. The experiment in a line: Cot Monocyte TNFα Cell Based Assay.
The target of a further assay is Human Cot (Homo sapiens (Human), UniProt P41279). The experiment in a line: High Throughput Cot Biochemical Assay. As to conditions: Cot HTRF (TR-FRET) biochemical assay. (Time-resolved FRET reads energy transfer from a long-lived donor to a nearby acceptor.)
Human Cot, sequence (P41279 30-397): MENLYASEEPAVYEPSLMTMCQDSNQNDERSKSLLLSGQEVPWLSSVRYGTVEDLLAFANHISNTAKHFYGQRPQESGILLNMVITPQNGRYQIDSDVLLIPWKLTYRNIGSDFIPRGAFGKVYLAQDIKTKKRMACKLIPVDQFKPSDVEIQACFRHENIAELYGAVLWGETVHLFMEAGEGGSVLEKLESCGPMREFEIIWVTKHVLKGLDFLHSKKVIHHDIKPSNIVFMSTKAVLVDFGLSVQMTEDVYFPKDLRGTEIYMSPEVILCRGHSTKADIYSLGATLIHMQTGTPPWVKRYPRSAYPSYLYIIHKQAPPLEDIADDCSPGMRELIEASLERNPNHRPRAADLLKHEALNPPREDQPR
Where [1] appears, read: Homo sapiens, Monocyte, read-out: EC50 TNF, LPS-stimulated human monocytes, TNFα.
The mark [2] stands for this setting: read-out: EC50 TNF, LPS-stimulated human monocytes, TNFα.

Read-outs that look alike come from different tables or passages of the source.

Regarding `[2H]c1c([C@@H](Nc2cc(Cl)c3ncc(C#N)c(NCC(C)(C)C)c3c2)c2ccc(F)nc2C)nnn1C1(C(F)(F)F)CC1` [Example 549, (S)-8-chloro-6-(((6-fluoro-2-methylpyridin-3-yl)(1-(1-(trifluoromethyl)cyclopropyl)-1H-1,2,3-triazol-4-yl-5-d)methyl)amino)-4-(neopentylamino)quinoline-3-carbonitrile], in the assay with TNFα (setting [1]), the 50% effective concentration (EC50) turned out to be 68 nM. This compound also returned an IC50 on Human Cot (IC50 HTRF) of 4 nM.
On the same counts, the results for `CC(C)(C)CNc1c(C#N)cnc2c(C#N)cc(N[C@H](c3cn(C4(C(F)F)CC4)nn3)c3cccc4ncccc34)cc12` [Example 550, (S)-6-(((1-(1-(difluoromethyl)cyclopropyl)-1H-1,2,3-triazol-4-yl)(quinolin-5-yl)methyl)amino)-4-(neopentylamino)-quinoline-3,8-dicarbonitrile] are 29 nM and 2 nM.
`CC(C)(C)CNc1c(C#N)cnc2c(C#N)cc(N[C@H](c3cn(C4(C(F)F)CC4)nn3)c3cccc4ccncc34)cc12` [Example 552, (S)-6-(((1-(1-(difluoromethyl)cyclopropyl)-1H-1,2,3-triazol-4-yl)(isoquinolin-8-yl)methyl)-amino)-4-(neopentylamino)quinoline-3,8-dicarbonitrile]: in the assay with TNFα (setting [1]), the EC50 stood at 26 nM. At Human Cot (IC50 HTRF), this compound showed an IC50 of 2 nM.
In the case of `Cc1nc(F)ccc1[C@H](Nc1cc(Cl)c2ncc(C#N)c(NCC(C)(C)C)c2c1)c1cn(C2(C(=O)N(C)C)CC2)nn1` [Example 553, (S)-1-(4-(((8-chloro-3-cyano-4-(neopentyl-amino)quinolin-6-yl)amino)(6-fluoro-2-methylpyridin-3-yl)methyl)-1H-1,2,3-triazol-1-yl)-N,N-dimethylcyclopropane-1-carboxamide], the EC50 with TNFα (setting [1]) was found to be 64 nM. This compound had a concentration for half-maximal inhibition (IC50) against Human Cot (IC50 HTRF) of 3 nM.
Taken in the same sequence, the figures for `Cc1nc(F)ccc1[C@H](Nc1cc(Cl)c2ncc(C#N)c(NCC(C)(C)C)c2c1)c1cn(C2(C(=O)N3CCCC3)CC2)nn1` [Example 554, (S)-8-chloro-6-(((6-fluoro-2-methylpyridin-3-yl)(1-(1-(pyrrolidine-1-carbonyl)cyclopropyl)-1H-1,2,3-triazol-4-yl)methyl)amino)-4-(neopentylamino)quinoline-3-carbonitrile] were 151 nM and 5 nM.
Taken in the same sequence, the figures for `Cc1nc(F)ccc1[C@H](Nc1cc(Cl)c2ncc(C#N)c(NCC(C)(C)C)c2c1)c1cn(C2(C(=O)N3CCOCC3)CC2)nn1` [Example 555, (S)-8-chloro-6-(((6-fluoro-2-methylpyridin-3-yl)(1-(1-(morpholine-4-carbonyl)cyclopropyl)-1H-1,2,3-triazol-4-yl)methyl)amino)-4-(neopentylamino)quinoline-3-carbonitrile] were 208 nM and 7 nM.
Consider `Cc1n[nH]c2cccc([C@H](Nc3cc(Cl)c4ncc(C#N)c(NCC(C)(C)C)c4c3)c3cn(C4(C(F)F)CC4)nn3)c12` [Example 556, (S)-8-chloro-6-(((1-(1-(difluoromethyl)cyclo-propyl)-1H-1,2,3-triazol-4-yl)(3-methyl-1H-indazol-4-yl)methyl)amino)-4-(neopentyl-amino)quinoline-3-carbonitrile], for which, in the assay on TNFα (setting [1]), the EC50 amounted to 120 nM. Also, the concentration for half-maximal inhibition (IC50) on Human Cot (IC50 HTRF) amounted to 8 nM.
Taken in the same sequence, the figures for `Cn1ncc2c([C@H](Nc3cc(C#N)c4ncc(C#N)c(NCC(C)(C)C)c4c3)c3cn(C4(C(F)(F)F)CC4)nn3)cccc21` [Example 557, (S)-6-(((1-methyl-1H-indazol-4-yl)(1-(1-(trifluoro-methyl)cyclopropyl)-1H-1,2,3-triazol-4-yl)methyl)amino)-4-(neopentylamino)-quinoline-3,8-dicarbonitrile] were 117 nM and 5 nM.
On the same counts, the results for `Cn1cc2c([C@H](Nc3cc(C#N)c4ncc(C#N)c(NCC(C)(C)C)c4c3)c3cn(C4(C(F)(F)F)CC4)nn3)cccc2n1` [Example 558, (S)-6-(((2-methyl-2H-indazol-4-yl)(1-(1-(trifluoromethyl)cyclopropyl)-1H-1,2,3-triazol-4-yl)methyl)amino)-4-(neopentyl-amino)quinoline-3,8-dicarbonitrile] are 72 nM and 3 nM.
As to `Cn1nnc2cccc([C@H](Nc3cc(C#N)c4ncc(C#N)c(NCC(C)(C)C)c4c3)c3cn(C4(C(F)F)CC4)nn3)c21` [Example 559, (S)-6-(((4-(1-1-(difluoromethyl)cyclopropyl)-1H-1,2,3-triazol-4-yl)(1-methyl-1H-benzo[d] [1,2,3]triazol-7-yl)methyl)amino)-4-(neopentylamino)quinoline-3,8-dicarbonitrile], in the assay with TNFα (setting [2]), the 50% effective concentration (EC50) worked out at 42 nM. Moreover, the half-maximal inhibitory concentration (IC50) at Human Cot (read-out: IC50 HTRF) was 2 nM.
For `CC(C)(C)CNc1c(C#N)cnc2c(Cl)cc(N[C@H](c3cn(C4(C(F)(F)F)CC4)nn3)c3cccn4nccc34)cc12` [Example 560, (S)-8-chloro-4-(neopentylamino)-6-((pyrazolo[1,5-a]pyridin-4-yl(1-(1-(trifluoromethyl)cyclopropyl)-1H-1,2,3-triazol-4-yl)methyl)amino)quinoline-3-carbonitrile], in the assay with TNFα (setting [1]), the concentration for a half-maximal effect (EC50) amounted to 287 nM. Moreover, the midpoint of inhibition against Human Cot (IC50 HTRF), the IC50, lay at 11 nM.
On the same counts, the results for `CC(C)(C)CNc1c(C#N)cnc2c(Cl)cc(N[C@H](c3cn(C4(C(N)=O)CC4)nn3)c3cccc4cnccc34)cc12` [Example 561, (S)-1-(4-(((8-chloro-3-cyano-4-(neopentylamino)quinolin-6-yl)amino) (isoquinolin-5-yl)methyl)-1H-1,2,3-triazol-1-yl)cyclopropane-1-carboxamide] are 433 nM and 2 nM.
Turning to `CC(C)(C)CNc1c(C#N)cnc2c(Cl)cc(N[C@H](c3cn(C4(C(N)=O)CCC4)nn3)c3cccc4cnccc34)cc12` [Example 562, (S)-1-(4-(((8-chloro-3-cyano-4-(neopentyl-amino)quinolin-6-yl)amino)(isoquinolin-5-yl)methyl)-1H-1,2,3-triazol-1-yl)cyclobutane-1-carboxamide], the concentration giving a half-maximal response (EC50) in the assay on TNFα (setting [1]) came out at 231 nM. At Human Cot (IC50 HTRF), this compound registered a half-maximal inhibitory concentration (IC50) of 2 nM.
Taken in the same sequence, the figures for `CC(C)(C)CNc1c(C#N)cnc2c(Cl)cc(N[C@H](c3cn(C4(C#N)CC4)nn3)c3cccc4cnccc34)cc12` [Example 563, (S)-8-chloro-6-(((1-(1-cyanocyclopropyl)-1H-1,2,3-triazol-4-yl)(isoquinolin-5-yl)methyl)amino)-4-(neopentylamino)-quinoline-3-carbonitrile] were 63 nM and 2 nM.
Taken in the same sequence, the figures for `CC(C)(C)CNc1c(C#N)cnc2c(Cl)cc(N[C@H](c3cn(C4(C)CC4)nn3)c3cccc4cnccc34)cc12` [Example 564, (S)-8-chloro-6-((isoquinolin-5-yl(1-(1-methylcyclopropyl)-1H-1,2,3-triazol-4-yl)methyl)amino)-4-(neopentylamino)-quinoline-3-carbonitrile] were 69 nM and 3 nM.
On the same counts, the results for `CC(C)(C)CNc1c(C#N)cnc2c(Cl)cc(N[C@H](c3cn(C4(C(N)=O)CC4)nn3)c3cccc4ncccc34)cc12` [Example 565, (S)-1-(4-(((8-chloro-3-cyano-4-(neopentyl-amino)quinolin-6-yl)amino)(quinolin-5-yl)methyl)-1H-1,2,3-triazol-1-yl)cyclo-propane-1-carboxamide] are 306 nM and 2 nM.
For `CC(C)(C)CNc1c(C#N)cnc2c(Cl)cc(N[C@H](c3cn(C4(C(N)=O)CCC4)nn3)c3cccc4ncccc34)cc12` [Example 566, (S)-1-(4-(((8-chloro-3-cyano-4-(neopentyl-amino)quinolin-6-yl)amino)(quinolin-5-yl)methyl)-1H-1,2,3-triazol-1-yl)cyclobutane-1-carboxamide], in the assay with TNFα (setting [1]), the concentration giving a half-maximal response (EC50) was 190 nM. At Human Cot (IC50 HTRF), this compound displayed an IC50 of 2 nM.
On the same counts, the results for `CC(C)(C)CNc1c(C#N)cnc2c(Cl)cc(N[C@H](c3cn(C4(C#N)CC4)nn3)c3cccc4ncccc34)cc12` [Example 567, (S)-8-chloro-6-(((1-(1-cyanocyclopropyl)-1H-1,2,3-triazol-4-yl)(quinolin-5-yl)methyl)amino)-4-(neopentylamino)-quinoline-3-carbonitrile] are 66 nM and 2 nM.
Taken in the same sequence, the figures for `CC(C)(C)CNc1c(C#N)cnc2c(Cl)cc(N[C@H](c3cn(C4(C)CC4)nn3)c3cccc4ncccc34)cc12` [Example 568, (S)-8-chloro-6-(((1-(1-methylcyclopropyl)-1H-1,2,3-triazol-4-yl)(quinolin-5-yl)methyl)amino)-4-(neopentylamino)-quinoline-3-carbonitrile] were 170 nM and 5 nM.
Regarding `CC(C)(C)CNc1c(C#N)cnc2c(C#N)cc(N[C@H](c3cn(C4(CF)CC4)nn3)c3cccc4cnccc34)cc12` [Example 569], the 50% effective concentration (EC50) in the assay on TNFα (setting [2]) is 171 nM. In addition, the IC50 on Human Cot (read-out: IC50 HTRF) is 7 nM.
For `Cn1cc2cccc([C@H](Nc3cc(Cl)c4ncc(C#N)c(NCC(C)(C)C)c4c3)c3cn(C4(C(F)(F)F)CC4)nn3)c2n1` [Example 570, (S)-8-chloro-6-(((2-methyl-2H-indazol-7-yl)(1-(1-(trifluoromethyl)cyclopropyl)-1H-1,2,3-triazol-4-yl)methyl)amino)-4-(neopentylamino)quinoline-3-carbonitrile], the EC50 with TNFα (setting [1]) was found to be 1000 nM. At Human Cot (IC50 HTRF), the half-inhibitory concentration (IC50) was 184 nM.
`CC(C)(C)CNc1c(C#N)cnc2c(C#N)cc(N[C@H](c3cn(C4(C(F)(F)F)CC4)nn3)c3cccn4nccc34)cc12` [Example 572, (S)-4-(neopentylamino)-6-((pyrazolo[1,5-a]pyridin-4-yl(1-(1-(trifluoromethyl)cyclo-propyl)-1H-1,2,3-triazol-4-yl)methyl)amino)quinoline-3,8-dicarbonitrile]: the EC50 with TNFα (setting [1]) was determined as 79 nM. 4 nM corresponded to half-maximal inhibition against Human Cot (IC50 HTRF) (IC50).
